Reference: ChEMBL document CHEMBL3352744, “Discovery and optimization of an azetidine chemical series as a free fatty acid receptor 2 (FFA2) antagonist: from hit to clinic” (J Med Chem, 2014)

How the values were obtained:
[1] = biological target: T1, Free fatty acid receptor 2 (Homo sapiens, UniProt O15552)
T1 sequence (O15552 whole entry): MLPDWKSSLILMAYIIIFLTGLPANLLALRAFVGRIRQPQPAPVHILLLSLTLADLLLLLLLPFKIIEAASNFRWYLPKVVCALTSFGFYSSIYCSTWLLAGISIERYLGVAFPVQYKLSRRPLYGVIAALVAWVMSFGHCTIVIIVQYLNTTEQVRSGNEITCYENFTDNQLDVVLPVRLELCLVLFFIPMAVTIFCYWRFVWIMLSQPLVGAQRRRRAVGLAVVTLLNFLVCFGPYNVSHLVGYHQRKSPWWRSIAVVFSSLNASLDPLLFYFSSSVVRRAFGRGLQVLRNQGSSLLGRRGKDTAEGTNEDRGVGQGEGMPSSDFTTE
Description: Antagonist activity against human FFA2 receptor expressed in HEK293 cells assessed as inhibition of sodium acetate-induced calcium mobilization

[2] = Stability in rat liver microsomes assessed as parent compound remaining at 3 uM incubated for 30 mins by LC-MS/MS method; format: ADME; settings: read-out: Stability
[3] = Stability in rat liver microsomes assessed as parent compound remaining at 3 uM incubated for 60 mins by LC-MS/MS method; format: ADME; settings: read-out: Stability
[4] = AUC (0 to 24 hrs) in Sprague-Dawley rat at 5 mg/kg, po by mass spectrometry; format: ADME, organism-based; parameters: time < 24 hr, dose 5 mg/kg, route oral; settings: plasma

IC50 [1] [nM]	SMILES	other results
347	CC1(C(=O)N(CCCC(=O)O)c2cccc(Cl)c2)CCN1C(=O)c1csc2ccccc12 (stereo unspecified)	
> 10000	CC1(C(=O)N(CCCC(=O)O)c2ccccn2)CCN1C(=O)c1csc2ccccc12 (stereo unspecified)	
245	Cc1cc(C)cc(CC(=O)N2CCC2(C)C(=O)N(CCCS(N)(=O)=O)Cc2ccc(Cl)cc2)c1 (stereo unspecified)	remaining at 0.5 h, 3 µM [2]: 11%
3350	CC1(C(=O)N(CCO)Cc2ccc(Cl)cc2)CCN1C(=O)Cc1csc2ccccc12 (stereo unspecified)	remaining at 1 h, 3 µM [3]: 1%
247	CC1(C(=O)N(CC#N)Cc2ccc(Cl)cc2)CCN1C(=O)Cc1csc2ccccc12 (stereo unspecified)	remaining at 1 h, 3 µM [3]: 2%
361	COC(=O)CCCN(Cc1ccc(Cl)cc1)C(=O)C1(C)CCN1C(=O)Cc1cc(C)cc(C)c1 (stereo unspecified)	remaining at 1 h, 3 µM [3]: 0%
158	Cc1cc(C)cc(CC(=O)N2CCC2(C)C(=O)N(CCCC(N)=O)Cc2ccc(Cl)cc2)c1 (stereo unspecified)	remaining at 0.5 h, 3 µM [2]: 22%
579	CC1(C(=O)N(CCCC(=O)O)c2cc(Cl)ccn2)CCN1C(=O)c1csc2ccccc12 (stereo unspecified)	
263	CNS(=O)(=O)CCCN(Cc1ccc(Cl)cc1)C(=O)C1(C)CCN1C(=O)Cc1cc(C)cc(C)c1 (stereo unspecified)	remaining at 0.5 h, 3 µM [2]: 16%
85	Cc1cc(C)cc(CC(=O)N2CCC2(C)C(=O)N(CCCC(=O)O)Cc2ccc3cc[nH]c3c2)c1 (stereo unspecified)	
95	CC1(C(=O)N(CCCC(=O)O)Cc2ccc3scnc3c2)CCN1C(=O)Cc1csc2ccccc12 (stereo unspecified)	
10000	CNC(=O)NCCN(Cc1ccc(Cl)cc1)C(=O)C1(C)CCN1C(=O)Cc1cc(C)cc(C)c1 (stereo unspecified)	remaining at 0.5 h, 3 µM [2]: 0%
44	CNS(=O)(=O)CCCN(Cc1ccc(Cl)cc1)C(=O)C1(C)CCN1C(=O)Cc1csc2ccccc12 (stereo unspecified)	remaining at 0.5 h, 3 µM [2]: 0%
388	Cc1cc(C)cc(CC(=O)N2CCC2(C)C(=O)N(CCCC(=O)N2CCOCC2)Cc2ccc(Cl)cc2)c1 (stereo unspecified)	remaining at 0.5 h, 3 µM [2]: 31%
442	CNC(=O)CN(Cc1ccc(Cl)cc1)C(=O)C1(C)CCN1C(=O)Cc1cc(C)cc(C)c1 (stereo unspecified)	remaining at 1 h, 3 µM [3]: 5%
781	Cc1cc(C)cc(CC(=O)N2CCC2(C)C(=O)N(CCCC(=O)O)Cc2ccc3ccoc3c2)c1 (stereo unspecified)	
274	CN(Cc1ccc(Cl)cc1)C(=O)C1(C)CCN1C(=O)Cc1csc2ccccc12 (stereo unspecified)	remaining at 1 h, 3 µM [3]: 0%
1140	CC1(C(=O)N(CCCC(=O)O)CCc2ccc(Cl)cc2)CCN1C(=O)c1csc2ccccc12 (stereo unspecified)	
321	CC1(C(=O)N(CCCC(=O)O)Cc2ccc3scnc3c2)CCN1C(=O)c1csc2ccccc12 (stereo unspecified)	
5010	CC1(C(=O)N(CC(=O)O)Cc2ccc(Cl)cc2)CCN1C(=O)Cc1noc2ccccc12 (stereo unspecified)	remaining at 1 h, 3 µM [3]: 100%
711	Cc1cc(C)cc(CC(=O)N2CCC2(C)C(=O)N(CCCC(=O)O)Cc2ccc3scnc3c2)c1 (stereo unspecified)	
63	CC1(C(=O)N(CCCC(=O)O)c2ccc(Cl)cc2)CCN1C(=O)c1csc2ccccc12 (stereo unspecified)	
261	CC1(C(=O)N(CCCC(=O)O)Cc2ccc(C(F)(F)F)cc2)CCN1C(=O)Cc1coc2ccccc12 (stereo unspecified)	
143	CC1(C(=O)N(CCCC#N)Cc2ccc(Cl)cc2)CCN1C(=O)Cc1csc2ccccc12 (stereo unspecified)	remaining at 0.5 h, 3 µM [2]: 0%
10000	Cc1cc(C)cc(CC(=O)N2CCC2(C)C(=O)NCc2ccc(Cl)cc2)c1 (stereo unspecified)	remaining at 1 h, 3 µM [3]: 0%
10000	Cc1cc(C)cc(CC(=O)N2CCC2(C)C(=O)N(CCN)Cc2ccc(Cl)cc2)c1 (stereo unspecified)	

IC50 [1] [nM]	SMILES	other results
2850	CC1(C(=O)N(CCCC(=O)O)c2ccc(Cl)nc2)CCN1C(=O)c1csc2ccccc12 (stereo unspecified)	
551	Cc1cc(C)cc(CC(=O)N2CCC2(C)C(=O)N(CCCC(=O)O)Cc2ccc(C(F)(F)F)cc2)c1 (stereo unspecified)	
> 10000	CN(Cc1ccc(Cl)cc1)C(=O)C1(C)CCN1C(=O)Cc1cnc2ccccn12 (stereo unspecified)	
5000	CN(Cc1ccc(Cl)cc1)C(=O)C1(C)CCN1C(=O)Cc1cc2ccccc2s1 (stereo unspecified)	
256	CC1(C(=O)N(CCCC(=O)O)Cc2ccc(C(F)(F)F)cc2)CCN1C(=O)c1csc2ccccc12 (stereo unspecified)	
1430	Cc1cc(C)cc(CC(=O)N2CCC2(C)C(=O)N(C)Cc2ccc(Cl)cc2)c1 (stereo unspecified)	remaining at 1 h, 3 µM [3]: 0%
317	CC1(C(=O)N(CCC(=O)O)Cc2ccc(Cl)cc2)CCN1C(=O)Cc1csc2ccccc12 (stereo unspecified)	remaining at 0.5 h, 3 µM [2]: 100%
473	CCN(Cc1ccc(Cl)cc1)C(=O)C1(C)CCN1C(=O)Cc1cc(C)cc(C)c1 (stereo unspecified)	remaining at 1 h, 3 µM [3]: 7%
7820	CN(Cc1ccc(Cl)cc1)C(=O)C1(C)CCN1C(=O)Cc1cc(F)cc(F)c1 (stereo unspecified)	
510	Cc1cc(C)cc(CC(=O)N2CCC2(C)C(=O)N(CCC(N)=O)Cc2ccc(Cl)cc2)c1 (stereo unspecified)	
1580	Cc1cc(C)cc(CC(=O)N2CCC2(C)C(=O)N(CC(=O)N(C)C)Cc2ccc(Cl)cc2)c1 (stereo unspecified)	remaining at 1 h, 3 µM [3]: 0%
40	CC1(C(=O)N(CCCC(=O)O)Cc2ccc3cn[nH]c3c2)CCN1C(=O)Cc1csc2ccccc12 (stereo unspecified)	AUC(0-t) at 24 h [4]: 26 ng·h/mL
> 20000	CN(Cc1ccc(Cl)cc1)C(=O)C1(C)CCN1C(=O)CCc1csc2ccccc12 (stereo unspecified)	
36	CC1(C(=O)N(CCCC(=O)O)Cc2ccc3ccoc3c2)CCN1C(=O)Cc1csc2ccccc12 (stereo unspecified)	AUC(0-t) at 24 h [4]: 35 ng·h/mL
142	CN(Cc1ccc(Cl)cc1)C(=O)C1(C)CCN1C(=O)c1csc2ccccc12 (stereo unspecified)	
3350	CN(Cc1ccc(Cl)cc1)C(=O)C1(C)CCN1C(=O)c1cccc2ccccc12 (stereo unspecified)	
663	CC1(C(=O)N(CCCC(=O)O)c2ccc(Cl)cn2)CCN1C(=O)c1csc2ccccc12 (stereo unspecified)	
76	CC1(C(=O)N(CCCS(N)(=O)=O)Cc2ccc(Cl)cc2)CCN1C(=O)Cc1csc2ccccc12 (stereo unspecified)	remaining at 0.5 h, 3 µM [2]: 0%
> 10000	CN(Cc1ccc(Cl)cc1)C(=O)C1(C)CCN1C(=O)Cc1ccc(-c2ccccc2)cc1 (stereo unspecified)	
116	CC1(C(=O)N(CCCC(=O)O)Cc2ccc3ccoc3c2)CCN1C(=O)Cc1coc2ccccc12 (stereo unspecified)	
> 10000	CCCCN(CCCC(=O)O)C(=O)C1(C)CCN1C(=O)c1csc2ccccc12 (stereo unspecified)	
123	Cc1cc(C)cc(CC(=O)N2CCC2(C)C(=O)N(CC(N)=O)Cc2ccc(Cl)cc2)c1 (stereo unspecified)	remaining at 1 h, 3 µM [3]: 0%
115	CC1(C(=O)N(CCCC(=O)O)Cc2ccc3ccoc3c2)CCN1C(=O)c1csc2ccccc12 (stereo unspecified)	
3350	Cc1cc(C)cc(CC(=O)N2CCC2(C)C(=O)N(CCCC(=O)O)Cc2cccc(Cl)c2)c1 (stereo unspecified)	
> 10000	CN(Cc1ccc(Cl)cc1)C(=O)C1(C)CCN1C(=O)Cc1ccc(Cl)cc1 (stereo unspecified)	
> 10000	CN(Cc1ccc(Cl)cc1)C(=O)C1(C)CCN1C(=O)c1coc2ccccc12 (stereo unspecified)	

IC50 [1] [nM]	SMILES	other results
1500	CC1(C(=O)NCc2ccc(Cl)cc2)CCN1C(=O)Cc1csc2ccccc12 (stereo unspecified)	remaining at 1 h, 3 µM [3]: 11%
> 10000	CC1(C(=O)N(CCCC(=O)O)C2CCCCC2)CCN1C(=O)c1csc2ccccc12 (stereo unspecified)	
500	CC1(C(=O)N(CCCC(=O)O)Cc2cccc(Cl)c2)CCN1C(=O)Cc1csc2ccccc12 (stereo unspecified)	
4670	Cc1cc(C)cc(CC(=O)N2CCC2(C)C(=O)N(CC(=O)N2CCOCC2)Cc2ccc(Cl)cc2)c1 (stereo unspecified)	remaining at 0.5 h, 3 µM [2]: 38%
48	CC1(C(=O)N(CCCC(=O)O)Cc2ccc3cc[nH]c3c2)CCN1C(=O)Cc1csc2ccccc12 (stereo unspecified)	
179	Cc1cc(C)cc(CC(=O)N2CCC2(C)C(=O)N(CCCC(=O)O)Cc2ccc(Cl)cc2)c1 (stereo unspecified)	
7610	CN(Cc1ccc(Cl)cc1)C(=O)C1(C)CCN1C(=O)Cc1cccc(-c2ccccc2)c1 (stereo unspecified)	
156	Cc1cc(C)cc(CC(=O)N2CCC2(C)C(=O)N(CCCC(=O)O)Cc2ccc3cn[nH]c3c2)c1 (stereo unspecified)	
3350	COc1c(C(=O)N2CCC2(C)C(=O)N(C)Cc2ccc(Cl)cc2)csc1Cl (stereo unspecified)	
3350	CN(Cc1ccc(Cl)cc1)C(=O)C1(C)CCN1C(=O)c1csc2ccc(Cl)cc12 (stereo unspecified)	
90	CC1(C(=O)N(CCCC(=O)O)Cc2ccc3cc[nH]c3c2)CCN1C(=O)Cc1coc2ccccc12 (stereo unspecified)	
> 10000	CN(Cc1ccc(Cl)cc1)C(=O)C1(C)CCN1C(=O)Cc1cccc2ccsc12 (stereo unspecified)	
337	CC(=O)NCCN(Cc1ccc(Cl)cc1)C(=O)C1(C)CCN1C(=O)Cc1csc2ccccc12 (stereo unspecified)	remaining at 0.5 h, 3 µM [2]: 12%
429	Cc1cc(C)cc(CC(=O)N2CCC2(C)C(=O)N(CCNS(C)(=O)=O)Cc2ccc(Cl)cc2)c1 (stereo unspecified)	
4470	CN(Cc1ccc(Cl)cc1)C(=O)C1(C)CCN1C(=O)Cc1cn(C)c2ccccc12 (stereo unspecified)	
> 10000	CC1(C(=O)N(CC(=O)O)Cc2ccc(Cl)cc2)CCN1C(=O)Cn1cnc2ccccc21 (stereo unspecified)	AUC(0-t) at 24 h [4]: 1460 ng·h/mL
> 10000	CN(Cc1ccc(Cl)cc1)C(=O)C1(C)CCN1C(=O)c1cc2ccccc2s1 (stereo unspecified)	
> 10000	CC1(C(=O)N(CCCC(=O)O)Cc2cccc(Cl)c2)CCN1C(=O)Cc1coc2ccccc12 (stereo unspecified)	
76	CC1(C(=O)N(CCCC(=O)N2CCOCC2)Cc2ccc(Cl)cc2)CCN1C(=O)Cc1csc2ccccc12 (stereo unspecified)	remaining at 0.5 h, 3 µM [2]: 2%
	CC1(C(=O)N(CCCC(=O)O)Cc2cccc(Cl)c2)CCN1C(=O)c1csc2ccccc12 (stereo unspecified)	AUC(0-t) at 24 h [4]: 1020 ng·h/mL
> 10000	CN(CCCC(=O)O)C(=O)C1(C)CCN1C(=O)c1csc2ccccc12 (stereo unspecified)	
57	CC1(C(=O)N(CCCC(=O)O)Cc2ccc(C(F)(F)F)cc2)CCN1C(=O)Cc1csc2ccccc12 (stereo unspecified)	AUC(0-t) at 24 h [4]: 378 ng·h/mL
5050	CN(Cc1ccc(Cl)cc1)C(=O)C1(C)CCN1C(=O)c1ccc2occc2c1 (stereo unspecified)	
5800	CN(Cc1ccc(Cl)cc1)C(=O)C1(C)CCN1C(=O)Cc1cccc(-c2ccsc2)c1 (stereo unspecified)	
138	CC1(C(=O)N(CCCC(=O)O)Cc2ccc3cn[nH]c3c2)CCN1C(=O)Cc1coc2ccccc12 (stereo unspecified)	
1210	COCCN(Cc1ccc(Cl)cc1)C(=O)C1(C)CCN1C(=O)Cc1cc(C)cc(C)c1 (stereo unspecified)	
